According to US20070207175A1, “Biaromatic compound activators of PPARgamma receptors and cosmetic/pharmaceutical compositions comprised thereof” (GALDERMA RESEARCH & DEVELOPMENT, priority 2004, published 2007):

Columns and labels:
Assay type in all cases: cell-based
[1] = target: T1, PPARα (Homo sapiens, UniProt Q07869); assay: Crossed-curve PPAR transactivation assay (PPARα); conditions: HeLN cells stably transfected with Gal-hPPARα and luciferase reporter; Schild regression against reference agonist; n.a. means not active; read-out: PPARα Kdapp
T1 sequence (Q07869 200-468 limits assumed): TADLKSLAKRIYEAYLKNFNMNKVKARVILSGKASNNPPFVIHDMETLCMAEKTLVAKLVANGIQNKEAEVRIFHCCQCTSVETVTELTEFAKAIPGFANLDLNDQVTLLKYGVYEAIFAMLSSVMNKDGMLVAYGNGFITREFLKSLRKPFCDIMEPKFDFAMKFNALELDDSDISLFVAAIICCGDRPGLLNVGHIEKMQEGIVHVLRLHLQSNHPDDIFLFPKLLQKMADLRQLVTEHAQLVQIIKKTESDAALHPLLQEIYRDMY
Experimental: (§1) Activation of the PPAR receptors by an agonist (activator) in HeLN cells leads to the expression of a reporter gene, luciferase, which, in the presence of a substrate, generates light. The modulation of the PPAR receptors is measured by quantifying the luminescence produced after incubation of the cells in the presence of a reference agonist. The ligands will displace the agonist from its site. The measurement of the activity is performed by quantifying the light produced. This measurement makes it possible to determine the modulatory activity of the compounds according to the invention by the determination of the constant which is the affinity of the molecule for the PPAR receptor. Since this value can fluctuate depending on the basal activity and the expression of the receptor, it is referred to as apparent Kd (Kdapp in nM).
To determine this constant, “crossed curves” for the test product, against a reference agonist, are prepared using a 96-well plate: 10 concentrations of the test product plus a concentration 0 are arranged in a line, and 7 concentrations of the agonist plus a concentration 0 are arranged in a column. This is 88 measurement points for 1 product and 1 receptor. […]
The various dilutions of the test products and of the reference ligand are added at the rate of 5 μl per well. […] After 5 minutes, the plates are read using the luminescence reader.

[2] = target: T2, PPARδ (Homo sapiens, UniProt Q03181); assay: Crossed-curve PPAR transactivation assay (PPARδ); conditions: HeLN cells stably transfected with Gal-hPPARδ and luciferase reporter; Schild regression against reference agonist; n.a. means not active; read-out: PPARδ Kdapp
T2 sequence (Q03181 211-441 limits assumed): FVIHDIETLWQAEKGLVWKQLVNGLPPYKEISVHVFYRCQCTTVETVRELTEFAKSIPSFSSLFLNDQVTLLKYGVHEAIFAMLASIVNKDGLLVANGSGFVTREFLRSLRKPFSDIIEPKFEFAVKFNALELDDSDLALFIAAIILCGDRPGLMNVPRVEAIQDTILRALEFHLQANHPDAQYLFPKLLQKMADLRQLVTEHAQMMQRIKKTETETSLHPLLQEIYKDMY
Experimental: as §1
(§2) To determine this constant, “crossed curves” for the test product, against a reference agonist, are prepared using a 96-well plate: 10 concentrations of the test product plus a concentration 0 are arranged in a line, and 7 concentrations of the agonist plus a concentration 0 are arranged in a column. This is 88 measurement points for 1 product and 1 receptor. The remaining 8 wells are used for repeatability controls.
(§3) Measurements are also taken for total agonist controls with the same products.
(§4) The HeLN cell lines used are stable transfectants containing the plasmids ERE-βGlob-Luc-SV-Neo (reporter gene) and PPAR (α, δ, γ) Gal-hPPAR. These cells are seeded in 96-well plates at the rate of 10,000 cells per well in 100 μl of DMEM medium without phenol red and supplemented with 10% of defatted calf serum. The plates are then incubated for 16 hours at 37° C. and 7% CO2.
(§5) The various dilutions of the test products and of the reference ligand are added at the rate of 5 μl per well. The plates are subsequently incubated for 18 hours at 37° C. and 7% CO2. The culture medium is removed by turning over and 100 μl of a 1:1 PBS/luciferin mixture are added to each well. After 5 minutes, the plates are read using the luminescence reader.

[3] = target: T3, PPARγ (Homo sapiens, UniProt P37231); assay: Crossed-curve PPAR transactivation assay (PPARγ); conditions: HeLN cells stably transfected with Gal-hPPARγ and luciferase reporter; Schild regression against reference agonist; n.a. means not active; read-out: PPARγ Kdapp
T3 sequence (P37231 238-505 limits assumed): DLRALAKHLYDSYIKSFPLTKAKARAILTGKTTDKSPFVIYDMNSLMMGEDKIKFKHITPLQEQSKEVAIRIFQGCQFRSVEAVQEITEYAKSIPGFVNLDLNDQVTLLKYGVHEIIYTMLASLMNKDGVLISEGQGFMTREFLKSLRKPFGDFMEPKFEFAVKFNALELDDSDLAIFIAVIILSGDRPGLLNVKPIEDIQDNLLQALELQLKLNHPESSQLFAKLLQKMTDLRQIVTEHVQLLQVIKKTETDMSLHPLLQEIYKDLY
Experimental: as §1, §2, §3, §4, §5

SMILES | Kd [1] [nM] | Kd [2] [nM] | Kd [3] [nM]
CCCCCC(=O)N(C)Cc1cccc(-c2ccc(CCC(=O)O)cc2OCCCC)c1 [Example 9, 3-{2-butoxy-3′-[((hexanoyl)(methyl)amino)methyl]biphenyl-4-yl}propanoic acid] | 4000 | 4000 | 4
CCCCCCCC(=O)N(C)Cc1cccc(-c2ccc(/C=C/C(=O)O)c(F)c2)c1 [Example 3, 3-{3-fluoro-3′-[((methyl)(octanoyl)amino)methyl]biphenyl-4-yl}acrylic acid] | – | – | 60
CCCCCCCC(=O)N(C)Cc1cccc(-c2ccc(CCC(=O)O)c(O)c2)c1 [Example 7, 3-{3-hydroxy-3′-[((methyl)(octanoyl)amino)methyl]biphenyl-4-yl}propanoic acid] | – | – | 4000
CCCCCCCC(=O)N(C)Cc1cccc(-c2ccc(CCC(=O)O)cc2)c1 [Example 2, 3-{3′-[((methyl)(octanoyl)amino)methyl]biphenyl-4-yl}propanoic acid] | – | – | 120
CCCCOc1ccc(C(=O)N(C)Cc2cccc(-c3ccc(CCC(=O)O)cc3OCCCC)c2)cc1 [Example 13, 3-(2-butoxy-3′-{[(4-butoxybenzoyl)(methyl)amino]methyl}biphenyl-4-yl)propanoic acid] | – | – | 1
CCCCOc1cc(CCC(=O)O)ccc1-c1cccc(CN(C)C(=O)c2ccc(OC)cc2)c1 [Example 15, 3-(2-butoxy-3′-{[(4-methoxybenzoyl)(methyl)amino]methyl}biphenyl-4-yl)propanoic acid] | – | 4000 | 0.5
CCCCCCCC(=O)N(C)Cc1cccc(-c2ccc(CCC(=O)O)c(F)c2)c1 [Example 4, 3-[3-fluoro-3′-[((methyl)(octanoyl)amino)methyl]biphenyl-4-yl)propanoic acid] | – | – | 250
CCCCOc1cc(CCC(=O)O)ccc1-c1cccc(CN(C)C(=O)CCCC)c1 [Example 10, 3-{2-butoxy-3′-[((methyl)(pentanoyl)amino)methyl]biphenyl-4-yl}propanoic acid] | – | 4000 | 4
CCCCCCCC(=O)N(C)Cc1cccc(-c2ccc(CCC(=O)O)cc2OCCCC)c1 [Example 8, 3-{2-butoxy-3′-[((methyl)(octanoyl)amino)methyl]biphenyl-4-yl}propanoic acid] | – | – | 1
CCCCOc1cc(CCC(=O)O)ccc1-c1cccc(CN(C)C(=O)c2ccccc2)c1 [Example 14, 3-{3′-[((benzoyl)(methyl)amino)methyl]-2-butoxybiphenyl-4-yl}propanoic acid] | – | – | 8
CCCCCCCC(=O)N(C)Cc1cccc(-c2ccc(/C=C/C(=O)O)cc2)c1 [Example 1, 3-(3′-[((methyl)(octanoyl)amino)methyl]biphenyl-4-yl)acrylic acid] | – | – | 500
CCCCOc1cc(CCC(=O)O)ccc1-c1cccc(CN(C)C(=O)c2ccc(OCC)cc2)c1 [Example 12, 3-(2-butoxy-3′-{[(4-ethoxybenzoyl)(methyl)amino]methyl}biphenyl-4-yl)propanoic acid] | – | – | 0.25
CCCCOc1cc(CCC(=O)O)ccc1-c1cccc(CN(C)C(=O)c2cccc(OC)c2)c1 [Example 16, 3-(2-butoxy-3′-{[(3-methoxybenzoyl)(methyl)amino]methyl}biphenyl-4-yl)propanoic acid] | – | 4000 | 4
CCCCCCCC(=O)NCc1cccc(-c2ccc(CCC(=O)O)cc2)c1 [Example 6, 3-[3′-((octanoylamino)methyl)biphenyl-4-yl]propanoic acid] | – | – | 4000
CCCCCCC(=O)N(C)Cc1cccc(-c2ccc(CCC(=O)O)cc2OCCCC)c1 [Example 11, 3-{2-butoxy-3′-[((heptanoyl)(methyl)amino)methyl]biphenyl-4-yl}propanoic acid] | 500 | 4000 | 1
